# Test results: ChEMBL document CHEMBL3046276, “Preparation and activity study of new organophosphate insecticide candidates” (J Pestic Sci, 2011)
# What was measured:
# Apolygus lucorum = test: Insecticidal activity against Apolygus lucorum after 24 hr by larvae-dipping method; format: functional
# [1] = Toxicity in Rattus norvegicus Sprague-Dawley (rat) assessed as mortality measured after 24 hr administered orally through force feeding method; format: organism-based; settings: in vivo, po
# Pieris rapae = test: Insecticidal activity against Pieris rapae after 24 hr by larvae-dipping method; format: functional
# Ostrinia furnacalis = test: Insecticidal activity against Ostrinia furnacalis (Asian corn borer) after 24 hr by larvae-dipping method; format: functional
# Helicoverpa zea [2] = test: Insecticidal activity against Helicoverpa zea (corn earworm) fed on compound pre-treated cabbage leaves assessed as insect mortality measured after 24 hr by leaf-dipping method; format: functional
# Chilo suppressalis = test: Insecticidal activity against Chilo suppressalis (rice stem borer) fed on compound pre-treated rice leaves assessed as insect mortality measured after 3 days by leaf-dipping method; format: functional
# Helicoverpa zea [3] = test: Insecticidal activity against Helicoverpa zea (corn earworm) fed on compound pre-treated cabbage leaves assessed as insect mortality measured after 48 hr by leaf-dipping method; format: functional
# Cnaphalocrocis medinalis = test: Insecticidal activity against Cnaphalocrocis medinalis fed on compound pre-treated corn leaves assessed as insect mortality measured after 3 days by leaf-dipping method; format: functional
Compound,LC50 (Apolygus lucorum) [µg/mL],LD50 at 24 h [1] [mg/kg],LC50 (Pieris rapae) [µg/mL],LC50 (Ostrinia furnacalis) [µg/mL],LC50 (Helicoverpa zea [2]) [µg/mL],LC50 (Chilo suppressalis) [µg/mL],LC50 (Helicoverpa zea [3]) [µg/mL],LC50 (Cnaphalocrocis medinalis) [µg/mL]
CCOP(=S)(OC)O/N=C(\C#N)c1ccccc1 (racemic),0.00568,1260,0.00734,0.0698,–,–,–,–
CCOP(=S)(OC)Oc1nc(Cl)c(Cl)cc1Cl (racemic),–,147,–,–,94.4,0.27,46.3,1.06
CCOP(=S)(OCC)Oc1nc(Cl)c(Cl)cc1Cl [CHLORPYRIFOS],–,163,–,–,390,2.61,63.9,13.9
CCOP(=S)(OCC)O/N=C(\C#N)c1ccccc1 [PHOXIM],0.00789,1200,0.0088,0.0853,–,–,–,–
